Patent publication US10874743B2, “IRAK degraders and uses thereof” (Kymera Therapeutics, Inc., priority 2017, dated 2020)

Molecular target: T1, IRAK4 (Homo sapiens, UniProt Q9NWZ3)
T1 sequence (Q9NWZ3 1-460): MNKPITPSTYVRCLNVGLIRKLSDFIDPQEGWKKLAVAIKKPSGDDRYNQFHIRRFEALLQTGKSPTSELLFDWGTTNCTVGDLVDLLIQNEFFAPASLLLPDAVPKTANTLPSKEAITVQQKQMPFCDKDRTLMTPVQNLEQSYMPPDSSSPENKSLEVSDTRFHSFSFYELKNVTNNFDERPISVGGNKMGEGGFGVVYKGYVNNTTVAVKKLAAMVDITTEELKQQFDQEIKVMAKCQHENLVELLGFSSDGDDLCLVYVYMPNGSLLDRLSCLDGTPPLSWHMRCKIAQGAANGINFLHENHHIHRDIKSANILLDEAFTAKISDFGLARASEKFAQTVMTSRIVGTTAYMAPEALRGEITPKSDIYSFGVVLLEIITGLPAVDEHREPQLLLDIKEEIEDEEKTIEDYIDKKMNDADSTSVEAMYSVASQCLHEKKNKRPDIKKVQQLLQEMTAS
Assay: OCI-LY-10 degradation assay (western blot, % IRAK4 degraded after 4 hours)
Type: cell-based
Set-up: endogenous in cells; host or cells: OCI-LY10
Settings: OCI-LY10 cells; for OCI-LY10 % IRAK4 Degradation: IRAK4 degraded after 4 hours, western blot; for OCI-LY10 % IRAK4 Degradation (0.01 uM) / OCI-LY10 % IRAK4 Degradation (0.1 uM) / OCI-LY10 % IRAK4 Degradation (1 uM): 4 hours; for OCI-LY10 % IRAK4 Degradation (0.01 uM): 0.01 uM compound; for OCI-LY10 % IRAK4 Degradation (0.1 uM): 0.1 uM compound; for OCI-LY10 % IRAK4 Degradation (1 uM): 1 uM compound
Description: Compounds were reconstituted in DMSO to make stock solutions at concentration of 60 mM. THP-1 and OCI-LY10 cells were maintained in RPMI-1640 medium containing 10% FBS, 0.5 μM 2-ME or 20% FBS, 55 μM 2-ME, and 1% L-Glutamine respectively.
Cells were seeded into 6-well plates with 5e6 cells per well. 200 μL of diluted compounds were added to cells to the final concentration of 0.003-10 μM. After 4 or 24 hour-incubation at 37° C., cells were collected into 2 mL Eppendorf tubes and centrifuged at 1,000 rpm for 5 min. The cell pellets were washed with 1×DPBS once and resuspended in 60 μL lysis buffer. The cells were lysed on ice for 10 min, then centrifuged at 14,000 rpm for 10 min at 4° C. and the supernatants were collected for western blots. For THP-1 cells, the lysis buffer contained 40 mM pH 7.4 HEPES, 140 mM NaCl, 2.5 mM EDTA, 1% NP-40, 0.1% SDS, and protease inhibitor cocktail (Roche, Cat. No. 05892791001). For OCI-LY10 cells, RIPAbuffer (Thermo Fisher, 89900) with Halt Protease and Phosphatase Inhibitor Cocktail (Thermo Fisher, 78446) was applied.
The protein concentration of cell lysates was quantified with Pierce™ BCA Protein Assay Kit (Pierce, 23227). Albumin standards at different concentrations were prepared, involving 2,000 ug/mL, 1,500 ug/mL, 1,000 ug/mL, 750 ug/mL, 500 ug/mL, 250 ug/mL, 125 ug/mL, and 25 ug/mL. BCA working reagents were prepared by mixing BCA reagent A with reagent B in 50:1 ratio. 200 μL of the BCA working reagents were added to 25 μL of BCA standard or cell lysates in microplate, and mixed thoroughly on a plate shaker for 30 seconds. After incubation at 37° C. for 30 min, the absorbance of samples at 562 nm were measured with EnVision Plate Reader.
Protein lysates were prepared in NuPAGE™ LDS sample buffer and NuPAGE™ sample reducing agent, and incubated at 95° C. for 5 min. For western blots, 20-25 μg of total proteins were resolved in 4-12% Bis-Tris gels (Introgen, WG1403A) or 10% Bis-Tris Midi gels (Invitrogen, WG1202BOX) running with 1×MOPS SDS running buffer (Invitrogen, NP0001) or 1×MES SDS running buffer (Invitrogen, NP0002). The proteins were transferred to low fluorescence PVDF membranes using the Trans-Blot Turbo Transfer System. Membranes were then blocked in Odyssey blocking buffer at RT for 1 h followed by primary incubation at 4° C. overnight. The primary antibodies were IRAK1 rabbit monoclonal antibody (CST, #4504S, 1:500), IRAK3 rabbit polyclonal antibody (CST, #4369, 1:500), IRAK4 rabbit polyclonal antibody (CST, #4363S, 1:1,000), MyD88 rabbit monoclonal antibody (Abcam, Ab133739, 1:2,000), j3-actin mouse monoclonal antibody (Sigma, A5441, 10,000), and Gapdh mouse monoclonal antibody (Millipore, MAB374, 1:5,000). Membranes were washed three times with 1×TBST, and then incubated with IR Dye 800 CW Goat anti-rabbit (Licor, #926-32211) and IR Dye 700 CW Goat anti-mouse (Licor, #926-68070) secondary antibodies in 1:10,000 dilution at RT for 1 h. The western blot images were obtained using Odyssey Imaging System.
OCI-LY-10 results at 4 hours. The letter codes indicate the percentage of IRAK4 degraded after 4 hours: A (>50% degradation), B (>20-50% degradation) and C (<20% degradation)
OCI-LY-10 results at 4 hours. The letter codes for % IRAK4 degradation indicate the percentage of IRAK4 degraded after 4 hours across three different concentrations: A (>50% degradation), B (>20-50% degradation) and C (<20% degradation).

Row | Compound | OCI-LY10 % IRAK4 Degradation | OCI-LY10 % IRAK4 Degradation (0.01 uM) | OCI-LY10 % IRAK4 Degradation (0.1 uM) | OCI-LY10 % IRAK4 Degradation (1 uM)
1 | NC(=O)[C@@H](O)C[C@H]1CCc2sc3ncnc(OC4CCC(N5CCN(C(=O)COCCOCCOCCOCCNc6cccc7c6C(=O)N(C6CCC(=O)NC6=O)C7=O)CC5)CC4)c3c21 (stereo partly drawn) [I-161, (2S)-3-[(8R)-1-[4-[4-[2-[2-[2-[2-[2-[[2-(2,6-dioxo-3-piperidyl)-1,3-dioxo-isoindolin-4-yl]amino]ethoxy]ethoxy]ethoxy]ethoxy]acetyl]piperazin-1-yl]cyclohexoxy]-7,8-dihydro-6H-cyclopenta[4,5]thieno[1,2-c]pyrimidin-8-yl]-2-hydroxy-propanamide] | C (<20% degradation) |  |  | 
2 | O=C1CCC(N2C(=O)c3ccc(CCCN4CCC(n5cc(NC(=O)c6coc(-c7ccnc(NCC8CC8)c7)n6)c(C(F)F)n5)CC4)cc3C2=O)C(=O)N1 (stereo not shown) [I-264] |  | C (<20% degradation) | C (<20% degradation) | C (<20% degradation)
3 | O=C1CCC(N2C(=O)c3cccc(OCc4cnnn4CCOCCOCCNCn4cc(NC(=O)c5coc(-c6ccnc(NCC7CC7)c6)n5)c(C(F)F)n4)c3C2=O)C(=O)N1 (stereo not shown) [I-383] |  | C (<20% degradation) | C (<20% degradation) | A (>50% degradation)
4 | CC(C)(OCCOCCOCCNc1cccc2c1C(=O)N(C1CCC(=O)NC1=O)C2=O)C(F)CNC(=O)c1cnc(-n2ncc3cc(C#N)cnc32)cc1NC1CC1 (stereo not shown) [I-59] | C (<20% degradation) |  |  | 
5 | Cc1ccc(NS(=O)(=O)c2ccc(CNC(=O)COCCOCCOCCOCCOCCNC(=O)c3ccc(-n4cc(NC(=O)c5coc(-c6ccnc(NCC(F)(F)F)c6)n5)c(C(N)=O)n4)cc3)cc2)c2[nH]cc(C#N)c12 [I-114] | C (<20% degradation) |  |  | 
6 | O=C1CCC(N2C(=O)c3cccc(CCCNCc4ccc(-n5cc(NC(=O)c6coc(-c7ccnc(NCC(F)(F)F)c7)n6)c(C(F)F)n5)cc4)c3C2=O)C(=O)N1 (stereo not shown) [I-361] |  | C (<20% degradation) | C (<20% degradation) | C (<20% degradation)
7 | Cc1ncsc1-c1ccc(CNC(=O)[C@@H]2C[C@@H](O)CN2C(=O)[C@@H](NCCCCCOCCOCCCCCNC(=O)c2ccc(-n3cc(NC(=O)c4coc(-c5ccnc(NCC(F)(F)F)c5)n4)c(C(N)=O)n3)cc2)C(C)(C)C)cc1 [I-188, N-(3-carbamoyl-1-(4-((5-(2-((5-(((S)-1-((2S,4R)-4-hydroxy-2-((4-(4-methylthiazol-5-yl)benzyl)carbamoyl)pyrrolidin-1-yl)-3,3-dimethyl-1-oxobutan-2-yl)amino)pentyl)oxy)ethoxy)pentyl)carbamoyl)phenyl)-1H-pyrazol-4-yl)-2-(2-((2,2,2-trifluoroethyl)amino)pyridin-4-yl)oxazole-4-carboxamide] | C (<20% degradation) |  |  | 
8 | CN(CCCc1ccc2c(c1)C(=O)N(C1CCC(=O)NC1=O)C2=O)Cc1ccc(-n2cc(NC(=O)c3coc(-c4ccnc(NCC(F)(F)F)c4)n3)c(C(F)F)n2)cc1 (stereo not shown) [I-374] |  | C (<20% degradation) | B (>20-50% degradation) | B (>20-50% degradation)
9 | O=C1CCC(N2C(=O)c3ccc(OCCc4cnnn4CCOCCOCCNCc4ccc(-n5cc(NC(=O)c6coc(-c7ccnc(NCC8CC8)c7)n6)c(C(F)F)n5)cc4)cc3C2=O)C(=O)N1 (stereo not shown) [I-347] |  | C (<20% degradation) | A (>50% degradation) | A (>50% degradation)
10 | NC(=O)c1nn(-c2ccc(CNCCOCCCc3cccc4c3CN(C3CCC(=O)NC3=O)C4=O)cc2)cc1NC(=O)c1coc(-c2ccnc(NCC(F)(F)F)c2)n1 (stereo not shown) [I-318] |  | C (<20% degradation) | A (>50% degradation) | B (>20-50% degradation)
11 | O=C1CCC(N2C(=O)c3cccc(NCCOCCN4CCO[C@H](CNCc5ccc(-n6cc(NC(=O)c7coc(-c8ccnc(NCC9CC9)c8)n7)c(C(F)F)n6)cc5)C4)c3C2=O)C(=O)N1 (stereo partly shown) [I-330] |  | C (<20% degradation) | A (>50% degradation) | A (>50% degradation)
12 | NC(=O)c1nn(C2CCN(CCOCCOCCOCCNc3cccc4c3C(=O)N(C3CCC(=O)NC3=O)C4=O)CC2)cc1NC(=O)c1coc(-c2ccnc(NCC(F)(F)F)c2)n1 (stereo not shown) [I-170, N-[3-carbamoyl-1-[1-[2-[2-[2-[2-[[2-(2,6-dioxo-3-piperidyl)-1,3-dioxo-isoindolin-4-yl]amino]ethoxy]ethoxy]ethoxy]ethyl]-4-piperidyl]pyrazol-4-yl]-2-[2-(2,2,2-trifluoroethylamino)-4-pyridyl]oxazole-4-carboxamide] | B (>20-50% degradation) |  |  | 
13 | CN(CCOCCCc1ccc2c(c1)C(=O)N(C1CCC(=O)NC1=O)C2=O)Cc1ccc(-n2cc(NC(=O)c3coc(-c4ccncc4)n3)c(C(F)F)n2)cc1 (stereo not shown) [I-377] |  | C (<20% degradation) | C (<20% degradation) | B (>20-50% degradation)
14 | CC(C)(OCCOCCOCCNc1cccc2c1C(=O)N(C1CCC(=O)NC1=O)C2=O)C(F)CNC(=O)c1cnc(Nc2ccc3ncsc3c2)cc1NC1CC1 (stereo not shown) [I-65] | C (<20% degradation) |  |  | 
15 | Cc1ncsc1-c1ccc(CNC(=O)[C@@H]2C[C@@H](O)CN2C(=O)[C@@H](NC(=O)COCCOCCOCCOCCOCC(=O)N2CCN([C@H]3CC[C@H](Oc4ncnc5sc6c(c45)[C@@H](C[C@H](O)C(N)=O)CC6)CC3)CC2)C(C)(C)C)cc1 [I-123] | C (<20% degradation) |  |  | 
16 | CN(CCCc1cccc2c1C(=O)N(C1CCC(=O)NC1=O)C2=O)Cc1ccc(-n2cc(NC(=O)c3coc(-c4ccncc4)n3)c(C(N)=O)n2)cc1 (stereo not shown) [I-356] |  | C (<20% degradation) | C (<20% degradation) | C (<20% degradation)
17 | O=C1CCC(N2C(=O)c3cccc(OCCc4cnnn4CCOCCOCCNCc4ccc(-n5cc(NC(=O)c6coc(-c7ccnc(NCC8CC8)c7)n6)c(C(F)F)n5)cc4)c3C2=O)C(=O)N1 (stereo not shown) [I-346] |  | B (>20-50% degradation) | A (>50% degradation) | A (>50% degradation)
18 | O=C1CCC(N2C(=O)c3ccc(NCCOCCOCCNCc4ccc(-n5cc(NC(=O)c6coc(-c7ccnc(NCC8CC8)c7)n6)c(C(F)F)n5)cc4)cc3C2=O)C(=O)N1 (stereo not shown) [I-354] |  | C (<20% degradation) | A (>50% degradation) | A (>50% degradation)
